Assay results published in patent US20240383954A1, “PEPTIDE INHIBITORS OF INTERLEUKIN-23 RECEPTOR AND THEIR USE TO TREAT INFLAMMATORY DISEASES” (Janssen Biotech, Inc., priority 2020, published 2024).
Where two headings read alike, the source gives them in different places. Starred links: 1 amine or outer side, 2 acyl side, 3 side chain; linkers in the order of their positions; H or OH if unused. Positions of bridges follow the written chain, without caps; N, C: chain ends. Non-standard residues stand in square brackets, D forms with d. Residues, ends and D or L forms follow the SMILES beside them. *: point of attachment. Trp(7-Ph) = N[C@@H](Cc1c[nH]c2c(-c3ccccc3)cccc12)C(=O)O; Trp(7-Me) = Cc1cccc2c(C[C@H](N)C(=O)O)c[nH]c12; Abu(4-yl) = O=C([C@H](CC[*:3])N[*:1])[*:2]; 2Nal = N[C@@H](Cc1ccc2ccccc2c1)C(=O)O; AEF = NCCOc1ccc(C[C@H](N)C(=O)O)cc1; αMeF = C[C@](N)(Cc1ccccc1)C(=O)O; Pen = CC(C)(S)[C@H](N)C(=O)O; αMeK = C[C@](N)(CCCCN)C(=O)O; dDap = NC[C@@H](N)C(=O)O; Thp = NC1(C(=O)O)CCOCC1; Boc = CC(C)(C)OC(=O)*

Assays:
[1] = biological target: T1, IL-23R (Homo sapiens, UniProt Q5VWK5); assay: cell-based
From the text: DB Cells IL23R pSTAT3 Cell Assay
Changes in phospho-STAT3 levels in the cell lysates were detected using the Cisbio HTRF pSTAT3 Cellular Assay Kit, according to manufacturer's Two Plate Assay protocol.

[2] = biological target: T1, IL-23R; assay: cell-based; details: PBMC pSTAT3 IC50 (nM), PBMCs from healthy donors, IL-23 5 ng/mL, 30 minutes, phosphorylated STAT3

T1 sequence (Q5VWK5 24-629): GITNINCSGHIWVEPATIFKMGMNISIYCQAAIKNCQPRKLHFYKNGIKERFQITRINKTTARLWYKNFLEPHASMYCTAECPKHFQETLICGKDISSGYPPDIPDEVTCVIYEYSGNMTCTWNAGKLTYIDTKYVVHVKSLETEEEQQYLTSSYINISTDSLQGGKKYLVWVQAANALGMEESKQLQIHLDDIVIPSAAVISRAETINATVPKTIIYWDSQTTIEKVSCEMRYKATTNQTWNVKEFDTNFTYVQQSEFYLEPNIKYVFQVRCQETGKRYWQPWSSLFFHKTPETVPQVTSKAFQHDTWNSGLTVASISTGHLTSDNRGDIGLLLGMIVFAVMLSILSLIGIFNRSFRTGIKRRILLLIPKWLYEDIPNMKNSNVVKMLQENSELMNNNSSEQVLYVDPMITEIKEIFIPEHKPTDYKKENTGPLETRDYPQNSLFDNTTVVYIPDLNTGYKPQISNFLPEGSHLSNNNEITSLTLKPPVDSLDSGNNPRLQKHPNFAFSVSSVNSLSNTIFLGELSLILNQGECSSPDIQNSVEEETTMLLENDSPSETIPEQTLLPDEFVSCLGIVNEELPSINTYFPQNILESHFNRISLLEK

Row | Compound | IC50 [1] [nM] | IC50 [2] [nM]
1 | CC(=O)NCCCC[C@@H]1NC(=O)[C@H](Cc2c[nH]c3c(-c4ccccc4)cccc23)NC(=O)[C@H]([C@@H](C)O)NC(=O)[C@H](CCC(N)=O)NC(=O)[C@@H](NC(=O)[C@@H](CCCNC(=N)N)NC(C)=O)CCSC[C@@H](C(=O)N[C@@H](Cc2ccc(OCCN)cc2)C(=O)N[C@@H](Cc2ccc3ccccc3c2)C(=O)N[C@@](C)(CCCCN)C(=O)N[C@@H](CCCCNC(C)=O)C(=O)N[C@@H](CC(N)=O)C(=O)N[C@@](C)(Cc2ccccc2)C(N)=O)NC1=O [Compound 11, Ac-[(D)Arg]-[Abu]-Q-T-[W(7-Ph)]-[Lys(Ac)]-[Cys]-Phe[4-(2-aminoethoxy)]-[2-Nal]-[a-MeLys]-[Lys(Ac)]-N-[a-MePhe]-NH2] (Ac-[dR][Abu(4-yl)]QT[Trp(7-Ph)]K(Ac)C[AEF][2Nal][αMeK]K(Ac)N[αMeF]-NH2; thioether 2-7) | 13.9 | –
2 | CC(=O)NCCCC[C@@H]1NC(=O)[C@H](Cc2c[nH]c3c(C)cccc23)NC(=O)[C@H]([C@@H](C)O)NC(=O)[C@H](CC(N)=O)NC(=O)[C@@H](NC(C)=O)C(C)(C)SSC(C)(C)[C@@H](C(=O)N[C@@H](Cc2ccc(OCCN)cc2)C(=O)N[C@@H](Cc2ccc3ccccc3c2)C(=O)N[C@@](C)(CCCCN)C(=O)N[C@@H](CCCCNC(C)=O)C(=O)N[C@@H](CC(N)=O)C(=O)N[C@H](CC(C)C)C(=O)N[C@](C)(Cc2ccccc2)C(N)=O)NC1=O [Compound 69, Ac-[Pen]-N-T-[W(7-Me)]-[Lys(Ac)]-[Pen]-Phe[4-(2-aminoethoxy)]-[2-Nal]-[a-MeLys]-[Lys(Ac)]-N-[(D)Leu]-[(D)aMePhe]-NH2] | 2.75 | –
3 | CC(=O)NCCCC[C@@H]1NC(=O)[C@H](Cc2c[nH]c3c(C)cccc23)NC(=O)[C@@H](CN)NC(=O)[C@H](CC(N)=O)NC(=O)[C@@H](NC(C)=O)C(C)(C)SSC(C)(C)[C@@H](C(=O)N[C@@H](Cc2ccc(OCCN)cc2)C(=O)N[C@@H](Cc2ccc3ccccc3c2)C(=O)N[C@@](C)(CCCCN)C(=O)N[C@@H](CCCCNC(C)=O)C(=O)N[C@@H](CC(N)=O)C(=O)N[C@H](CC(C)C)C(N)=O)NC1=O [Compound 72, Ac-[Pen]-N-[(D)Dap]-[W(7-Me)]-[Lys(Ac)]-[Pen]-Phe[4-(2-aminoethoxy)]-[2-Nal]-[a-MeLys]-[Lys(Ac)]-N-[(D)Leu]-NH2] (Ac-[Pen]N[dDap][Trp(7-Me)]K(Ac)[Pen][AEF][2Nal][αMeK]K(Ac)N[dL]-NH2; disulfide 1-6) | 52.6 | –
4 | CC(=O)NCCCC[C@@H]1NC(=O)[C@H](Cc2c[nH]c3ccccc23)NC(=O)[C@H]([C@@H](C)O)NC(=O)[C@H](CC(N)=O)NC(=O)[C@@H](NC(C)=O)CSSC[C@@](C)(C(=O)N[C@@H](Cc2ccc(OCCN)cc2)C(=O)N[C@@H](Cc2ccc3ccccc3c2)C(=O)N[C@@](C)(CCCCN)C(=O)N[C@@H](CCCCNC(C)=O)C(=O)N[C@@H](CC(N)=O)C(=O)NC2(C(N)=O)CCOCC2)NC1=O [Compound 121, Ac-[Cys]-N-T-W-[Lys(Ac)]-[aMeCys]-Phe[4-(2-aminoethoxy)]-[2-Nal]-[a-MeLys]-[Lys(Ac)]-N-[THP]-NH2] | – | 41
5 | CC(=O)N[C@H](CCCNC(=N)N)C(=O)N[C@H]1CCSC[C@@H](C(=O)N[C@@H](Cc2ccc(OCCN)cc2)C(=O)N[C@@H](Cc2ccc3ccccc3c2)C(=O)NC2(C(=O)N[C@@H](CCC(=O)O)C(=O)N[C@@H](CC(N)=O)C(=O)N[C@@](C)(Cc3ccc4ccccc4c3)C(N)=O)CCOCC2)NC(=O)[C@H](CCC(N)=O)NC(=O)[C@H](Cc2c[nH]c3ccccc23)NC(=O)[C@H]([C@@H](C)O)NC(=O)[C@H](CCC(N)=O)NC1=O [Compound 80, Ac-[(D)Arg]-[Abu]-Q-T-W-Q-[Cys]-Phe[4-(2-aminoethoxy)]-[2-Nal]-[THP]-E-N-[aMe(2-Nal)]-NH2] | – | 46
6 | CC(=O)NCCCC[C@@H]1NC(=O)[C@H](Cc2c[nH]c3c(C)cccc23)NC(=O)[C@H]([C@@H](C)O)NC(=O)[C@H](CC(N)=O)NC(=O)[C@@H](NC(=O)[C@H](N)CCCNC(=N)N)C(C)(C)SSC(C)(C)[C@@H](C(=O)N[C@@H](Cc2ccc(OCCNC(=O)OC(C)(C)C)cc2)C(=O)N[C@@H](Cc2ccc3ccccc3c2)C(=O)NC2(C(=O)N[C@@H](CCC(=O)O)C(=O)N[C@@H](CC(N)=O)C(=O)N[C@@](C)(Cc3ccccc3)C(N)=O)CCOCC2)NC1=O [Compound 305, NH2-r-Pen-N-T-7MeW-K(Ac)-Pen-AEF(Boc)-2Nal-THP-E-N-aMePhe-CONH2] (H-[dR][Pen]NT[Trp(7-Me)]K(Ac)[Pen][AEF](Boc)[2Nal][Thp]EN[αMeF]-NH2; disulfide 2-7) | – | 17
7 | CC(=O)NCCCC[C@@H]1NC(=O)[C@H](Cc2c[nH]c3c(C)cccc23)NC(=O)[C@H]([C@@H](C)O)NC(=O)[C@H](CC(N)=O)NC(=O)[C@@H](NC(C)=O)C(C)(C)SSC(C)(C)[C@@H](C(=O)N[C@@H](Cc2ccc(OCCN)cc2)C(=O)N[C@@H](Cc2ccc3ccccc3c2)C(=O)N[C@@](C)(CCCCN)C(=O)N[C@@H](CCCCNC(C)=O)C(=O)N[C@@H](CC(N)=O)C(=O)N[C@@](C)(Cc2ccccc2)C(=O)N[C@H](Cc2ccc(N)cc2)C(N)=O)NC1=O [Compound 114, Ac-[Pen]-N-T-[W(7-Me)]-[Lys(Ac)]-[Pen]-Phe[4-(2-aminoethoxy)]-[2-Nal]-[a-MeLys]-[Lys(Ac)]-N-[a-MePhe]-(D)Phe[4-NH2]-NH2] | – | 12
8 | CC(=O)NCCCC[C@@H]1NC(=O)[C@H](Cc2c[nH]c3c(C)cccc23)NC(=O)[C@H]([C@@H](C)O)NC(=O)[C@H](CC(N)=O)NC(=O)[C@@H](NC(C)=O)C(C)(C)SSC(C)(C)[C@@H](C(=O)N[C@@H](Cc2ccc(OCCN)cc2)C(=O)N[C@@H](Cc2ccc3ccccc3c2)C(=O)N[C@@](C)(CCCCN)C(=O)N[C@@H](CCCCNC(C)=O)C(=O)N[C@@H](CC(N)=O)C(=O)N[C@@](C)(Cc2ccc(O)cc2)C(N)=O)NC1=O [Compound 151, Ac-[Pen]-N-T-[W(7-Me)]-[Lys(Ac)]-[Pen]-Phe[4-(2-aminoethoxy)]-[2-Nal]-[a-MeLys]-[Lys(Ac)]-N-[aMeTyr]-NH2] | – | 5.7
9 | CC(=O)NCCCC[C@@H]1NC(=O)[C@H](Cc2c[nH]c3ccccc23)NC(=O)[C@H]([C@@H](C)O)NC(=O)[C@H](CCC(N)=O)NC(=O)[C@@H](NC(C)=O)C(C)(C)SSC(C)(C)[C@@H](C(=O)N[C@@H](Cc2ccc(OCCN)cc2)C(=O)N[C@@H](Cc2ccc3ccccc3c2)C(=O)N[C@@](C)(CCCCN)C(=O)N[C@@H](CCCCNC(C)=O)C(=O)N[C@@H](CC(N)=O)C(=O)N[C@@](C)(Cc2ccccc2)C(N)=O)NC1=O [Compound 82, Ac-[Pen]-Q-T-W-[Lys(Ac)]-[Pen]-Phe[4-(2-aminoethoxy)]-[2-Nal]-[a-MeLys]-[Lys(Ac)]-N-[a-MePhe]-NH2] (Ac-[Pen]QTWK(Ac)[Pen][AEF][2Nal][αMeK]K(Ac)N[αMeF]-NH2; disulfide 1-6) | – | 54
10 | CC(=O)N[C@H](CCCNC(=N)N)C(=O)N[C@H]1CCSC[C@@H](C(=O)N[C@@H](Cc2ccc(OCCN)cc2)C(=O)N[C@@H](Cc2ccc3ccccc3c2)C(=O)NC2(C(=O)N[C@@](C)(CCC(=O)O)C(=O)N[C@@H](CC(N)=O)C(=O)N[C@@H](Cc3cc(F)cc(F)c3)C(N)=O)CCOCC2)NC(=O)[C@H](CCC(N)=O)NC(=O)[C@H](Cc2c[nH]c3ccccc23)NC(=O)[C@H]([C@@H](C)O)NC(=O)[C@H](CCC(N)=O)NC1=O [Compound 46, Ac-[(D)Arg]-[Abu]-Q-T-W-Q-[Cys]-Phe[4-(2-aminoethoxy)]-[2-Nal]-[THP]-[aMeGlu]-N-[Phe(3,5-diF)]-NH2] | – | 48
